Reference: patent US10344064B2, “Engineered potent cytotoxic stapled BH3 peptides” (The Trustees of Princeton University, priority 2012, dated 2019)
“Also recorded” adds a separate entry of the source. Like-named read-outs stand apart in the source and are kept apart here. Bridges are numbered along the chain shown (N, C = ends). Where no end group is shown, it is not given here. [ ]: non-standard residue; d: D form. S5 = C=CCCC[C@](C)(N)C(=O)O

What was measured:
HeLa cells [1] = format: cell-based, human
Protocol: (§1) HeLa, PC3, MCF7 and MDA231 cell lines were used to determine IC50 of each stapled peptide. All cells were cultured at 37° C. supplemented with 5% CO2. HeLa cells and PC3 cells were maintained in DMEM and RPMI 1640 media, respectively, supplemented with 10% FBS, 50 units/mL penicillin, and 50 μg/mL streptomycin. MCF7 cells were maintained in DME/F12 media with 2% FBS, 10 μg/ml insulin, and 50 μg/ml gentamicin. MDA-MB-231 cells were maintained in DME/F12 media supplemented with 10% FBS, 10 μg/ml insulin, and 50 μg/ml gentamicin. The cytotoxicity of stapled peptides was determined using an MTT (3-(4,5-Dimethylthiazol-2-yl)-2,5-diphenyltetrazolium bromide assay (Sigma). Cells were plated at a density of 1.5×10^4 cells per well in a 96-well plate. After 24 hours, the medium was replaced with serum-free medium containing stapled peptides. Serum was added after 4 hours, and cells were incubated for an additional 44 hours. After this incubation, 0.5 mg/ml of MTT was added to each well and incubated for 4 hours. The medium was aspirated and 200 μL of dimethyl sulfoxide (DMSO) was added to each well to solubilize the formazan crystals. The absorbance was measured at 570 nm with 690 nm as an internal reference using a GloMax-Multi Detection System (Promega). Experiments were performed three times independently with biological replicates. A four-parameter model was used to fit the experimental data and extract the IC50 value from killing assays, where log [ ] was the log value of the stapled peptide concentration. [formula] During fitting, “top” was always fixed at 100% viability, while “bottom,” log [IC50] and Hill slope were allowed to vary. In all cases, “bottom” came out to be 0. The R^2 values of all fits were above 0.9, while the majority was above 0.95.

PC3 cells = format: cell-based, human
Protocol: as §1

MDA231 cells = format: cell-based, human
Protocol: as §1

Bcl-xL = biological target: T1, Bcl-xL (Homo sapiens, UniProt Q07817); assay: Apparent Kd by E. coli surface display and flow cytometry, Bcl-xL; format: binding; conditions: for increase in apparent affinity toward Bcl-xL: relative to wild-type Bim 14-mer; for binding to Bcl-xL (in words): compared with wild-type peptide
T1 construct: made in house; host or cells: E. coli BL21
Protocol: (§2) All binding assays were performed using MC1061 strain. Briefly, a 5 mL culture of a library sample or individual variant was grown to OD600˜0.6, and induced with arabinose (0.2%) at RT for 2.5 hours. Cells were pelleted (1 mL culture, 6000 rpm, 5 min) and resuspended in 1 mL PBS. A portion of the cell suspension (50 μL) was mixed with the desired concentration of pro-survival protein to a total volume of 500 μL. The mixture was allowed to rotate at room temperature for 1 hour for equilibrium binding. The cells were pelleted again (6000 rpm, 20 min), resuspended with 100 μL of 50 nM streptavidin-phycoerythrin (SAPE), and incubated on ice in the dark for 30 min. After a final centrifugation, the cell pellets were stored on ice and resuspended in 2 mL of PBS for flow cytometry measurements. A Partec CyFlow ML Flow Cytometer equipped with a 488 nm laser was used to analyze the cells. A FACSVantage SE cell sorter was used for cell sorting in single cell mode.
(§3) A two parameter model was used to extract apparent binding affinity (Kd) from flow cytometry binding experiments.

MCF7 cells = assay: MTT cytotoxicity assay of stapled peptides, MCF7; format: cell-based, human; conditions: for cytotoxicity toward MCF7 cells (in words): stapled peptides, at the concentrations tested
Protocol: as §1

A1 = assay: Apparent Kd by E. coli surface display and flow cytometry, A1; format: binding; conditions: for Kd: Table 3, apparent Kd, unstapled 14-mer displayed on E. coli (eCPX); for affinity improvement toward A1: relative to wild-type Bim 14-mer
Protocol: as §2, §3

[2] = tested on: HeLa, PC3, MCF7 and MDA231 cell lines; assay: MTT cytotoxicity assay of stapled peptides, all four cancer cell lines; format: cell-based, human; conditions: for cytotoxicity against the four cancer cell lines (in words): stapled pseudo-wild-type peptide
Protocol: as §1

Bcl-2 = biological target: T2, Bcl-2 (Homo sapiens, UniProt P10415); assay: Apparent Kd by E. coli surface display and flow cytometry, Bcl-2; format: binding; conditions: compared with wild-type peptide
T2 construct: made in house; host or cells: E. coli BL21
Protocol: as §2, §3

Bcl-w = biological target: T3, Bcl-w (Homo sapiens, UniProt Q92843); assay: Apparent Kd by E. coli surface display and flow cytometry, Bcl-w; format: binding; conditions: compared with wild-type peptide
T3 construct: made in house; host or cells: E. coli BL21
T3 sequence (Q92843 1-193): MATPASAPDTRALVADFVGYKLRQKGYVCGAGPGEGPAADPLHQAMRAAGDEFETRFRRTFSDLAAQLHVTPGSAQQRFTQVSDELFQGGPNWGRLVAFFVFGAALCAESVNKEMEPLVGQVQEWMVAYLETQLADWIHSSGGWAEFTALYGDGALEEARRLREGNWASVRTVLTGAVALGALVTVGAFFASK
Protocol: as §2, §3

Mcl-1 = biological target: T4, Mcl-1 (Homo sapiens, UniProt Q07820); assay: Apparent Kd by E. coli surface display and flow cytometry, Mcl-1; format: binding
T4 construct: made in house; host or cells: E. coli BL21
Protocol: as §2, §3

HeLa cells [3] = assay: TUNEL assay; format: cell-based, human; conditions: 5 μM, 5 hours
Protocol: (§4) To study the uptake of fluorescein-labeled M2-4 stapled peptide (Fl-M2-4), HeLa cells were cultured in DMEM with 10% FBS and antibiotics as described above. The peptide was added to a final concentration of 5 μM in fresh DMEM without serum supplementation. Cellular uptake of FI-M2-4 was visualized using a Hamamatsu Orca CCD camera attached to a Nikon Eclipse Ti microscope after 2.5 hours of incubation. Cells were fixed using 4% paraformaldehyde and counterstained with Hoechst 33342. For the TUNEL assay, HeLa cells were plated on a fibronectin-treated coverslip and incubated with 5 μM unlabeled M2-4 peptide for 5 hours. The cells were then fixed using 4% paraformaldehyde and permeabilized with 0.25% Triton X-100 in PBS. The TUNEL assay (Click-it Alexa-Fluor 594, Invitrogen) was carried out according to the manufacturer's recommendations including counterstaining cell nuclei with Hoechst 33342. Images were acquired using a Hamamatsu Orca CCD camera attached to a Nikon Eclipse Ti microscope. All images were processed with ImageJ software.

HeLa cells [4] = assay: Peptide uptake by fluorescence microscopy; format: cell-based, human; conditions: 5 μM, imaged after 2.5 hours
Protocol: as §4

[5] = Table 2, apparent Kd, unstapled 14-mer displayed on E. coli (eCPX), read-out: Kd vs. Mcl-1
[6] = Table 3, apparent Kd, unstapled 14-mer displayed on E. coli (eCPX), read-out: Kd (nM) Mcl-1

T1 sequence (Q07817 whole entry): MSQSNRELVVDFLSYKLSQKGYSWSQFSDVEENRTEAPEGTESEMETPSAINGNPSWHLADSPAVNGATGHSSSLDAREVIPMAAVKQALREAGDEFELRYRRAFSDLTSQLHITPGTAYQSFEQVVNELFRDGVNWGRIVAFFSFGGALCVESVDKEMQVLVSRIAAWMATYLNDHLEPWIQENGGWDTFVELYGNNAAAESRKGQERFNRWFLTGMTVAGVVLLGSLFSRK
T4 sequence (Q07820 whole entry): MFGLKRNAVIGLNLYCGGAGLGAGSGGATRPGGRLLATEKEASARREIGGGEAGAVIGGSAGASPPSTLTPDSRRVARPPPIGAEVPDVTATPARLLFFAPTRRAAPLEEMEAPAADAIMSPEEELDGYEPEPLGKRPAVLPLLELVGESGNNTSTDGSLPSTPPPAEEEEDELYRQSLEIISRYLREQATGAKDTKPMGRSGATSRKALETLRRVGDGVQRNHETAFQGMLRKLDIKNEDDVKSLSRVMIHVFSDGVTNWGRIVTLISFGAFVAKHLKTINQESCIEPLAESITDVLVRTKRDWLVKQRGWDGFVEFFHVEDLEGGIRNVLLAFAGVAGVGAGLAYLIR
T2 sequence (P10415 whole entry): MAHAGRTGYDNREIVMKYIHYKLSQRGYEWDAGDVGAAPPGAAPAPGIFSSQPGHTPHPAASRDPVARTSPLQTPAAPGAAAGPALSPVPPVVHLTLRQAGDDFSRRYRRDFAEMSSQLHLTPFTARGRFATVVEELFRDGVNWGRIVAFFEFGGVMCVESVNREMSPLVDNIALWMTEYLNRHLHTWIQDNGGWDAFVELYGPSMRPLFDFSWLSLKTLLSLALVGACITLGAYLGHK

CC[C@H](C)[C@H](NC(=O)[C@@H](N)Cc1c[nH]c2ccccc12)C(=O)N[C@@H](C)C(=O)N[C@@H](CCC(N)=O)C(=O)N[C@@H](CCC(N)=O)C(=O)N[C@@H](CC(C)C)C(=O)N[C@@H](CCCNC(=N)N)C(=O)N[C@@]1(C)CCCC=CCCC[C@@](C)(C(=O)N[C@@H](Cc2ccccc2)C(=O)N[C@@H](CC(N)=O)C(N)=O)NC(=O)[C@H](CC(=O)O)NC(=O)CNC(=O)[C@H]([C@@H](C)CC)NC1=O (single isomer, unassigned) [E151Q]
IC50 (HeLa cells [1]): 150 µM | IC50 (PC3 cells): 9.5 µM | IC50 (MDA231 cells): 20 µM | increase in apparent affinity toward Bcl-xL (Bcl-xL): 5 fold | IC50 (MCF7 cells): 35.7 µM | Kd (A1): 29.6 nM

CC[C@H](C)[C@H](NC(=O)[C@@H](N)Cc1c[nH]c2ccccc12)C(=O)N[C@@H](C)C(=O)N[C@@H](CCC(N)=O)C(=O)N[C@@H](CCC(N)=O)C(=O)N[C@@H](CC(C)C)C(=O)N[C@@H](CCCNC(=N)N)C(=O)N[C@@]1(C)CCCC=CCCC[C@@](C)(C(=O)N[C@@H](Cc2ccccc2)C(=O)N[C@@H](CC(N)=O)C(N)=O)NC(=O)[C@H](CC(=O)O)NC(=O)CNC(=O)[C@H]([C@@H](C)CC)NC1=O (single isomer, unassigned) [stapled E151Q]
IC50 [2]: 10 to 150 µM | cytotoxicity against the four cancer cell lines (in words) [2]: only modest cytotoxicity; also recorded: measurable but modest cytotoxicity | cytotoxicity against the four cancer cell lines (in words) ([2]; listed as pseudo-wild-type Bim peptide): only modest cytotoxicity

CC[C@H](C)[C@@H]1NC(=O)[C@@](C)(NC(=O)[C@H](CCCNC(=N)N)NC(=O)[C@H](CC(C)C)NC(=O)[C@H](CC(C)C)NC(=O)[C@H](CCC(N)=O)NC(=O)[C@H](C)NC(=O)[C@@H](NC(=O)[C@@H](N)Cc2c[nH]c3ccccc23)C(C)C)CCCC=CCCC[C@@](C)(C(=O)N[C@H](C(=O)N[C@@H](CC(N)=O)C(N)=O)C(C)C)NC(=O)[C@H](CC(=O)O)NC(=O)CNC1=O [M2-2, Trp-Val-Ala-Gln-Leu-Leu-Arg-Arg-Ile-Gly-Asp-Glu-Val-Asn]
binding to Bcl-2 (in words) (Bcl-2): lost the ability to bind | IC50 [2]: < 6.2 µM | binding to Bcl-w (in words) (Bcl-w): lost the ability to bind | Kd (Mcl-1; [5]): 5.8 nM | Kd (Mcl-1; [6]): 5.8 nM | Kd (Mcl-1; displayed unstapled 14-mer, read-out: apparent Kd against Mcl-1): 5.8 nM | increase in apparent affinity toward Mcl-1 (Mcl-1; relative to wild-type Bim 14-mer): 6 fold | IC50 (HeLa cells [1]): 6.1 µM | IC50 (PC3 cells): 4.7 µM | IC50 (MDA231 cells): 3.7 µM | binding to Bcl-xL (in words) (Bcl-xL): lost the ability to bind | IC50 (MCF7 cells): 5.7 µM | Kd (A1): 9.99 nM | affinity improvement toward A1 (A1): 3 fold

CC[C@H](C)[C@@H]1NC(=O)[C@@](C)(NC(=O)[C@H](CCCNC(=N)N)NC(=O)[C@H](CC(C)C)NC(=O)[C@H](CC(C)C)NC(=O)[C@H](CCC(N)=O)NC(=O)[C@H](C)NC(=O)[C@H](CC(C)C)NC(=O)[C@@H](N)Cc2c[nH]c3ccccc23)CCCC=CCCC[C@@](C)(C(=O)N[C@H](C(=O)N[C@@H](CC(N)=O)C(N)=O)[C@@H](C)CC)NC(=O)[C@H](CC(=O)O)NC(=O)CNC1=O [M2-4, Trp-Leu-Ala-Gln-Leu-Leu-Arg-Arg-Ile-Gly-Asp-Glu-Ile-Asn]
binding to Bcl-2 (in words) (Bcl-2): maintaining wild-type affinity | IC50 [2]: < 6.2 µM | binding to Bcl-w (in words) (Bcl-w): maintaining wild-type affinity | Kd (Mcl-1; [5]): 9.85 nM | Kd (Mcl-1; [6]): 9.85 nM | decrease in IC50 relative to the pseudo-wild-type peptide (HeLa cells [1]; HeLa cells, stapled peptides): ~150 fold | binding to Bcl-xL (in words) (Bcl-xL): maintaining wild-type affinity | Kd (A1): 4.18 nM | affinity improvement toward A1 (A1): 6 fold

CC(C)C[C@H](NC(=O)[C@H](Cc1c[nH]c2ccccc12)NC(=O)[C@H](CCC(N)=O)NC(=O)[C@H](C)NC(=O)[C@@H](NC(=O)[C@@H](N)Cc1c[nH]c2ccccc12)C(C)C)C(=O)N[C@@H](CCCNC(=N)N)C(=O)N[C@@]1(C)CCCC=CCCC[C@@](C)(C(=O)N[C@@H](Cc2ccccc2)C(=O)N[C@@H](CC(N)=O)C(N)=O)NC(=O)[C@H](CC(=O)O)NC(=O)CNC(=O)[C@H](Cc2c[nH]c3ccccc23)NC1=O [X2-3, Trp-Val-Ala-Gln-Trp-Leu-Arg-Arg-Trp-Gly-Asp-Glu-Phe-Asn]
IC50 (HeLa cells [1]): 51.3 µM | IC50 (PC3 cells): 17.9 µM | IC50 (MDA231 cells): 10.5 µM | increase in apparent affinity toward Bcl-xL (Bcl-xL): 25 fold | cytotoxicity toward MCF7 cells (in words) (MCF7 cells): no cytotoxicity | Kd (A1): 30.2 nM

CC(C)C[C@H](NC(=O)[C@H](CCC(N)=O)NC(=O)[C@H](C)NC(=O)[C@H](CC(C)C)NC(=O)[C@@H](N)Cc1c[nH]c2ccccc12)C(=O)N[C@@H](CC(C)C)C(=O)N[C@@H](CCCNC(=N)N)C(=O)N[C@@]1(C)CCCC=CCCC[C@@](C)(C(=O)N[C@@H](Cc2ccccc2)C(=O)N[C@@H](CC(N)=O)C(N)=O)NC(=O)[C@H](CC(=O)O)NC(=O)CNC(=O)[C@H](Cc2ccc(O)cc2)NC1=O [X2-8, Trp-Leu-Ala-Gln-Leu-Leu-Arg-Arg-Tyr-Gly-Asp-Glu-Phe-Asn]
IC50 (HeLa cells [1]): 55 µM | IC50 (PC3 cells): 14.9 µM | IC50 (MDA231 cells): 18.3 µM | cytotoxicity toward MCF7 cells (in words) (MCF7 cells): no cytotoxicity | Kd (A1): 40.5 nM

WIAQELRRIGDEFN [WT, reference compound]
Kd (A1): 26.9 nM

stapled M2-4: stapled version of M2-4; positions 8 and 12 replaced by olefinic amino acids and crosslinked (WLAQLLR[S5]IGD[S5]IN-NH2; staple 8-12)
apoptosis / DNA fragmentation by TUNEL (in words) (HeLa cells [3]): DNA fragmentation | apoptosis / DNA fragmentation by TUNEL (in words) (HeLa cells [3]; listed as M2-4 stapled peptide): causes apoptosis | cellular uptake (in words) (HeLa cells [4]): taken up
